The source of these data is ChEMBL document CHEMBL1201862, “PubChem BioAssay data set” (2004).

Test systems include UACC-62; SN12C; COLO 205; NCI-H460; Malme-3M; KM12; UACC-257; RXF 393; SW-620; A498; HCT-15; LXFL 529; EKVX; A549; NCI-H23; UO-31; SK-MEL-28.
Common to all, as to experiment: DTP human tumour cell line panel, 48 h

Broadly, the GI50 is the concentration at which growth is held to half of that of the control.

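Briefly, cells in 96-well plates were exposed to five compound concentrations for 48 h, and endpoints were estimated by linear interpolation. GI50 marks 50% less growth.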 Activity calls are given as the source filed them. Rule as the data show it: active = GI50 up to about 1.1 µM and inactive = higher.

`CCc1c(OC(C)=O)c2c(NC3OC(COC(C)=O)C(OC(C)=O)C(OC(C)=O)C3OC(C)=O)nc(OC)nc2oc1=O` (stereo not given): the GI50 with UACC-62, with SN12C, in the assay on COLO 205, with NCI-H460, in the assay on Malme-3M and in the assay on KM12 was > 100 µM (inactive) in each case. Also, the GI50 is > 100 µM (inactive) in the assay with UACC-257; > 100 µM (inactive) in the assay on RXF 393; > 100 µM (inactive) in the assay with SW-620; > 100 µM (inactive) in the assay with A498; > 100 µM with HCT-15; > 100 µM (inactive) in the assay with LXFL 529. The GI50 in the assay on EKVX, with A549, with NCI-H23 and in the assay on UO-31 was > 100 µM (inactive) each time.
For `CCN(CC)CCC(=O)Nc1ccc2c(c1)C(=O)c1ccc(NC(=O)CCN(CC)CC)cc1C2=O`, the GI50 was 10.4 µM (inactive) in the assay with UACC-62; 2.84 µM (inactive) in the assay with SN12C; 3.28 µM (inactive) in the assay on COLO 205; 1.38 µM (inactive) in the assay with NCI-H460; 1.81 µM (inactive) with KM12; 14.8 µM (inactive) with UACC-257. The GI50 was 2.11 µM (inactive) with RXF 393; 2.24 µM (inactive) in the assay on SW-620; 5.79 µM (inactive) in the assay with A498; 2.97 µM in the assay on HCT-15; 12.2 µM (inactive) in the assay on SK-MEL-28; 3.11 µM (inactive) with LXFL 529. Further, the GI50 with EKVX is 3.25 µM (inactive); in the assay on A549, 5.18 µM (inactive); with NCI-H23 it was 8.2 µM (inactive); with UO-31 it was 84.1 µM (inactive).
Turning to `O=C(O/N=C1/CCCC/C1=C\c1ccccc1)c1ccc(Cl)cc1`, the GI50 in the assay on UACC-62, in the assay with SN12C, in the assay on COLO 205, in the assay with NCI-H460, in the assay with Malme-3M and in the assay with KM12 was > 100 µM (inactive) each time. Further, the GI50 in the assay with UACC-257 is > 100 µM (inactive); in the assay on RXF 393, > 100 µM (inactive); in the assay with SW-620 it was > 100 µM (inactive); in the assay on HCT-15, > 100 µM; in the assay on SK-MEL-28, > 100 µM (inactive); in the assay on LXFL 529, 48 µM (inactive). In addition, the GI50 was 42.1 µM (inactive) with EKVX, > 100 µM (inactive) in the assay with A549, > 100 µM (inactive) in the assay on NCI-H23 and > 100 µM (inactive) with UO-31.
As for `O=S(=O)(N/N=C/c1ccc(Cl)c(Cl)c1)c1ccccc1`, the GI50 in the assay with UACC-62 is 46.2 µM (inactive); in the assay with SN12C, 37.7 µM (inactive); in the assay with COLO 205, 21.6 µM (inactive); with Malme-3M, > 100 µM (inactive); in the assay on KM12 it was 29 µM (inactive); in the assay on UACC-257 it was 38.8 µM (inactive). Further, the GI50 is 18.5 µM (inactive) in the assay on RXF 393; 53 µM (inactive) in the assay on SW-620; 26.1 µM (inactive) in the assay with A498; 36.1 µM in the assay with HCT-15; 72.3 µM (inactive) in the assay with SK-MEL-28; 30.4 µM (inactive) with LXFL 529. Also, the GI50 in the assay with EKVX was 64.9 µM (inactive); with A549, 39.7 µM (inactive); with NCI-H23, 36.3 µM (inactive); with UO-31 it was 27 µM (inactive).
On to `Cc1ccccc1-n1c2nc(=O)n(C)c(=O)c-2nc2ccccc21`, for which the GI50 is 3.48 µM (inactive) in the assay with UACC-62; 13.3 µM (inactive) in the assay on SN12C; 3.56 µM (inactive) in the assay with COLO 205; 9.55 µM (inactive) with NCI-H460; 5.58 µM (inactive) in the assay with Malme-3M; 12.2 µM (inactive) with KM12. Also, the GI50 was 8.73 µM (inactive) in the assay on UACC-257; 17.2 µM (inactive) in the assay with RXF 393; 13.4 µM (inactive) in the assay on SW-620; 31.8 µM (inactive) in the assay on A498; 11.1 µM in the assay on HCT-15; 12.5 µM (inactive) in the assay on LXFL 529. Also, the GI50 was 11.8 µM (inactive) in the assay on EKVX, 13.2 µM (inactive) in the assay with A549, 10.1 µM (inactive) with NCI-H23 and 29.1 µM (inactive) with UO-31.
